Measurements as given in BindingDB's records for doi:10.1016/j.bmcl.2007.07.011 (Bristol Myers Squibb, 2007).

Target: T1, Polyunsaturated fatty acid lipoxygenase ALOX15 (Oryctolagus cuniculus, UniProt P12530)
T1 sequence (P12530 whole entry): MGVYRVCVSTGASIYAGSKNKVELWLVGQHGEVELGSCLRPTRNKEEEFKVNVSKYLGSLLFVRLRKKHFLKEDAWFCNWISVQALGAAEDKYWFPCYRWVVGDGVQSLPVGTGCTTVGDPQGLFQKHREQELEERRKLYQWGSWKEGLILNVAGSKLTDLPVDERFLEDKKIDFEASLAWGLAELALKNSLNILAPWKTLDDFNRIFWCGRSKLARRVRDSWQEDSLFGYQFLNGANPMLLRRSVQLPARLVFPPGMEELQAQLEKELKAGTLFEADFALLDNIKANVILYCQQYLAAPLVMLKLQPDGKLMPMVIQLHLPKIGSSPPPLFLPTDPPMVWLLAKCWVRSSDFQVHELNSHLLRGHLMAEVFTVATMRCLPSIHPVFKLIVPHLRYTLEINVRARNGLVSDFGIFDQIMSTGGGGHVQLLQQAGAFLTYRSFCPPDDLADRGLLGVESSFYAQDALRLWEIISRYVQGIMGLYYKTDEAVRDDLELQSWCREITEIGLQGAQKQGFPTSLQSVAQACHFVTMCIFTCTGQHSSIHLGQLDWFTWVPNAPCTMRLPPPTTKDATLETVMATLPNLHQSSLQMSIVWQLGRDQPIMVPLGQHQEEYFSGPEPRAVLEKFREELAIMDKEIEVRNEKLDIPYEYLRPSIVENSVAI
Test: Enzyme Inhibition Assay
Method: The inhibitory activity of the compounds against purified 15-LO enzyme was determined using a standard colorimetric assay in which the lipid hydroperoxide product (13-hydroperoxyoctadecadienoic acid) oxidizes Fe2+. The Fe3+ forms a chromophore with xylenol orange that absorbs strongly at 560 nm.

IC50 | SMILES
210 nM | CCCCCc1ccc(S(=O)(=O)NCCc2nc(-c3ccc(Cl)cc3)[nH]c2-c2ccc(OC)cc2)cc1 [N-{2-[2-(4-chlorophenyl)-5-(4-methoxyphenyl)-1H-imidazol-4-yl]ethyl}-4-pentylbenzene-1-sulfonamide]
11 nM | COc1ccc(-c2nc(-c3cccs3)[nH]c2CCNS(=O)(=O)N(C)[C@@H]2CCN(c3ccc(Cl)c(Cl)c3)C2)cc1 [{[(3R)-1-(3,4-dichlorophenyl)pyrrolidin-3-yl](methyl)sulfamoyl}({2-[5-(4-methoxyphenyl)-2-(thiophen-2-yl)-1H-imidazol-4-yl]ethyl})amine]
